Source: patent US8815800B2, “Moisturizing composition comprising an aminopeptide mixture” (Conopco, Inc., priority 2011, dated 2014)

Assays:
Ex-vivo porcine skin = assay: Skin moisturization: Corneometer hydration of treated ex-vivo porcine skin
Protocol: Skin moisturization was assessed in terms of hydration, measured using a Corneometer (Courage+Khazaka, Germany, model CM 825, consistent with the Sorption Desorption Test described in Bioengineering of the Skin:Water and the Stratum Corneum, by G. Borroni et al., Ed by P. Elsner et al., CBC Press, Chapter 18, 1995). Instrument readings typically vary from 5 to 120 units, with small numbers (˜6) typical for nails, higher numbers typical for dry skin (˜10-20), medium numbers typical for hydrated skin (˜40) and large numbers typical for skin immediately after application of water-based humectants (above 100).
Ex-vivo porcine skin (area 1.5 cm×1.5 cm) was treated with 0.1 ml of the compositions identified in Table 1 as well as a 10% glycerol solution and deionized water as the control. Readings were taken before treatments as a baseline and at least 5 measurements were made at the same position at the time intervals shown in the table.
The relative hydration numbers were calculated as 100%*(Ct-C0)/C0, where C0 is the reading before the treatment, and Ct is the reading taken at the time t after treatment.

[1] = Glass transition temperature by differential scanning calorimetry; format: physicochemical
Protocol: Glass transition temperatures were measured using differential scanning calorimetry (DSC Q1000, TA Instruments) at a heating rate of 10 K/min from −80 to +40° C. Glass transition temperatures were determined using TA instrument software (TA Advantage) from the middle of the heat capacity curve. The compositions comprising aminopeptide mixtures consistent with this invention were assessed against glycerol and other compositions with amino acids. Water concentration means the water concentration of the composition at the time the glass transition temperature was obtained. Water was evaporated from contained compositions by storing the same at room temperature at a relative humidity of about 33%.

stratum corneum = assay: Hydration of stratum corneum: water uptake in sorption-desorption cycle (Dynamic Water Sorption Analyzer); details: 0.12 mL applied
Protocol: The hydration of the stratum corneum was estimated from hysteresis observed during the sorption-desorption cycle. Disks of stratum corneum (6 mm in diameter) were treated with 0.06 mL aminopeptide mixture, glycerol or water at both sides and dried. The samples were then placed in a Dynamic Water Sorption Analyzer and with controlled humidity. When the humidity was increased in small steps (Delta RH=10%) water uptake was measured after 3 hours equilibration for each step. Water uptake is defined as a mass of water per the dry mass of stratum corneum. Table 3 depicts the values of water uptake for sorption and desorption for stratum corneum treated with aminopeptide mixture consistent with this invention (Sample 3), glycerol and stratum corneum treated with deionized water.

For OCC(O)CO [Glycerol (10%), glycerol], the “Relative Hydration” value (Ex-vivo porcine skin; 10 minutes after treatment with 0.1 ml) was 23%, the “Relative Hydration” value (Ex-vivo porcine skin; 30 minutes after treatment with 0.1 ml) was 11% and the “Relative Hydration” value (Ex-vivo porcine skin; 60 minutes after treatment with 0.1 ml) was 10%. The “change in hydration with respect to the initial hydration number” value (Ex-vivo porcine skin; after 10, 30, and 60 minutes of application to model skin, in words) was “lower”, the Glass transition temperature ([1]; water concentration 0 % in composition at reading) was −83 °C and the Glass transition temperature ([1]; water concentration 40 % in composition at reading) was −108 °C. For the same compound, the “Water uptake, desorption” value (stratum corneum; relative humidity 20.8 %) was 87.3 mg/g, the “Water uptake, sorption” value (stratum corneum; relative humidity 20.8 %) was 122.22 mg/g and the “water uptake difference (desorption-sorption)” value (“water uptake difference” below) (stratum corneum; relative humidity 20.8 %) was 34.92 mg/g. The “Water uptake, desorption” value (stratum corneum; relative humidity 31 %) was 135.34 mg/g, the “Water uptake, sorption” value (stratum corneum; relative humidity 31 %) was 161.38 mg/g and the “water uptake difference” value (stratum corneum; relative humidity 31 %) was -26.04 mg/g. The “Water uptake, desorption” value (stratum corneum; relative humidity 41 %) was 192.06 mg/g, the “Water uptake, sorption” value (stratum corneum; relative humidity 41 %) was 209.84 mg/g and the “water uptake difference” value (stratum corneum; relative humidity 41 %) was -17.78 mg/g. The “Water uptake, desorption” value (stratum corneum; relative humidity 51 %) was 261.90 mg/g, the “Water uptake, sorption” value (stratum corneum; relative humidity 51 %) was 275.13 mg/g and the “water uptake difference” value (stratum corneum; relative humidity 51 %) was -13.23 mg/g. The “Water uptake, desorption” value (stratum corneum; relative humidity 60.2 %) was 366.67 mg/g, the “Water uptake, sorption” value (stratum corneum; relative humidity 60.2 %) was 366.67 mg/g and the “water uptake difference” value (stratum corneum; relative humidity 60.2 %) was 0 mg/g. For the same compound, the “Water uptake, desorption” value (stratum corneum; relative humidity 70.35 %) was 524.34 mg/g, the “Water uptake, sorption” value (stratum corneum; relative humidity 70.35 %) was 524.34 mg/g and the “water uptake difference” value (stratum corneum; relative humidity 70.35 %) was 0 mg/g.
